Measured values as given in article PMC6318026 (Molecular cancer therapeutics, 2018).

Target: dihydroorotate dehydrogenase (DHODH) (Homo sapiens, UniProt Q02127)
Assay: recombinant DHODH enzyme assay
Assay type: biochemical

dihydroorotate dehydrogenase (DHODH), sequence (Q02127 whole entry): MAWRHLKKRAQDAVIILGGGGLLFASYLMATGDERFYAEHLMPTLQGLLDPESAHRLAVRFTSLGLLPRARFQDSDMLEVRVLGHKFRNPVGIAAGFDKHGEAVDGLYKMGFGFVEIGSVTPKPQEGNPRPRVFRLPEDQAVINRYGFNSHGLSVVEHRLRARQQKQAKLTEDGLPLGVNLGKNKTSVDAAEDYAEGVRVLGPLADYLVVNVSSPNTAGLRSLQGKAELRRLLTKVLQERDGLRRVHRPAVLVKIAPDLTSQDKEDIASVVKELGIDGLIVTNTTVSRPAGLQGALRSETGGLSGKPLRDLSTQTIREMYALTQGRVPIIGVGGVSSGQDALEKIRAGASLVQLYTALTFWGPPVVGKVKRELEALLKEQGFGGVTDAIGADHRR

C/C(O)=C(\C#N)C(=O)Nc1ccc(C(F)(F)F)cc1 [teriflunomide]
recombinant DHODH enzyme assay; isolated mitochondria assay: inhibited the activity of recombinant DHODH using in vitro enzyme assays, though not as potently as do brequinar or teriflunomide
